Test results reported in publication PMC5458547, “Discovery of first-in-class reversible dual small molecule inhibitors against G9a and DNMTs in hematological malignancies” (Nature Communications, 2017).
Converted amounts (≈) assume the structure as drawn.

How the values were obtained:
[1] = biological target: T1, MLL-WARD (Homo sapiens, UniProt Q03164); experiment: Epigenetics selectivity panel (BPS Bioscience); assay type: biochemical
T1 construct: purchased DiscoverX KINOMEscan (kinases); BPS Bioscience (epigenetic targets)

[2] = biological target: T2, PRMT5 (Homo sapiens, UniProt O14744); experiment: Epigenetics selectivity panel (BPS Bioscience); assay type: biochemical
T2 construct: purchased DiscoverX KINOMEscan (kinases); BPS Bioscience (epigenetic targets)
T2 sequence (O14744 whole entry): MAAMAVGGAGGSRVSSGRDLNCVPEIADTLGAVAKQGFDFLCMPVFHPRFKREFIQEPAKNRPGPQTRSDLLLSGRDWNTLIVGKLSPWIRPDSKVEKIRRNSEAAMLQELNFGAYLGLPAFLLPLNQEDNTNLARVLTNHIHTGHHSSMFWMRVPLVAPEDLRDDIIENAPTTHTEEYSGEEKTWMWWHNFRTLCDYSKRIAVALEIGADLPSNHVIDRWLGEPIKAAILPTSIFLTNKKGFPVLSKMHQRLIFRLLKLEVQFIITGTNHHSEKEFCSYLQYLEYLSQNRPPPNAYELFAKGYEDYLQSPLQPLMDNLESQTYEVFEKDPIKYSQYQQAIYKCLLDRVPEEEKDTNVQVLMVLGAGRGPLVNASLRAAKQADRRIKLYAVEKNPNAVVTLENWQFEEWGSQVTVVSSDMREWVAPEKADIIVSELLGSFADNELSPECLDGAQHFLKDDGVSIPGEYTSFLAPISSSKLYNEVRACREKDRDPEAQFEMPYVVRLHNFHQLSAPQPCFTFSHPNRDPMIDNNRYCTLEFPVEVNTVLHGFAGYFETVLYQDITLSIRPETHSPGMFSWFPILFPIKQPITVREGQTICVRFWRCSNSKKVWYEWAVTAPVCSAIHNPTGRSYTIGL
T2 sequence (Q9BQA1 whole entry partner): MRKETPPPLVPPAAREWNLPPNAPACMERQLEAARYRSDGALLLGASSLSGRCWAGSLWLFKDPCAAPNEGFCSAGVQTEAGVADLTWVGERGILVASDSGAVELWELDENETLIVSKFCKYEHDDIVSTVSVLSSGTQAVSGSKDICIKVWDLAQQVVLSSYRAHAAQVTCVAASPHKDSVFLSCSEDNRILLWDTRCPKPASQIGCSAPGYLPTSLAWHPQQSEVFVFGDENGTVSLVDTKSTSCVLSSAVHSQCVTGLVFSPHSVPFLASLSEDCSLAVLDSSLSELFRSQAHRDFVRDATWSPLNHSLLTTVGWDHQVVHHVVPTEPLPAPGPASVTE

[3] = biological target: T3, PRMT8 (Homo sapiens, UniProt Q9NR22); experiment: Epigenetics selectivity panel (BPS Bioscience); assay type: biochemical
T3 construct: purchased DiscoverX KINOMEscan (kinases); BPS Bioscience (epigenetic targets)

[4] = biological target: T4, SETD2 (Homo sapiens, UniProt Q9BYW2); experiment: Epigenetics selectivity panel (BPS Bioscience); assay type: biochemical
T4 construct: purchased DiscoverX KINOMEscan (kinases); BPS Bioscience (epigenetic targets)

[5] = biological target: T5, ATAD2A (Homo sapiens, UniProt Q6PL18); experiment: Epigenetics selectivity panel (BPS Bioscience); assay type: binding
T5 construct: purchased DiscoverX KINOMEscan (kinases); BPS Bioscience (epigenetic targets)

[6] = biological target: T6, BAZ2B (Homo sapiens, UniProt Q9UIF8); experiment: Epigenetics selectivity panel (BPS Bioscience); assay type: binding
T6 construct: purchased DiscoverX KINOMEscan (kinases); BPS Bioscience (epigenetic targets)

[7] = biological target: T7, BRD4(BD1+BD2) (Homo sapiens, UniProt O60885); experiment: Epigenetics selectivity panel (BPS Bioscience); assay type: binding
T7 construct: BRD2(BD1+BD2), BRD4(BD1+BD2), BRDT(BD1); purchased BPS Bioscience (contract panel)

[8] = biological target: T8, BRDT(BD1) (Homo sapiens, UniProt Q58F21); experiment: Epigenetics selectivity panel (BPS Bioscience); assay type: binding
T8 construct: purchased DiscoverX KINOMEscan (kinases); BPS Bioscience (epigenetic targets)

[9] = biological target: T9, CREBBP (Homo sapiens, UniProt Q92793); experiment: Epigenetics selectivity panel (BPS Bioscience); assay type: binding
T9 construct: purchased DiscoverX KINOMEscan (kinases); BPS Bioscience (epigenetic targets)
T9 sequence (Q92793 whole entry): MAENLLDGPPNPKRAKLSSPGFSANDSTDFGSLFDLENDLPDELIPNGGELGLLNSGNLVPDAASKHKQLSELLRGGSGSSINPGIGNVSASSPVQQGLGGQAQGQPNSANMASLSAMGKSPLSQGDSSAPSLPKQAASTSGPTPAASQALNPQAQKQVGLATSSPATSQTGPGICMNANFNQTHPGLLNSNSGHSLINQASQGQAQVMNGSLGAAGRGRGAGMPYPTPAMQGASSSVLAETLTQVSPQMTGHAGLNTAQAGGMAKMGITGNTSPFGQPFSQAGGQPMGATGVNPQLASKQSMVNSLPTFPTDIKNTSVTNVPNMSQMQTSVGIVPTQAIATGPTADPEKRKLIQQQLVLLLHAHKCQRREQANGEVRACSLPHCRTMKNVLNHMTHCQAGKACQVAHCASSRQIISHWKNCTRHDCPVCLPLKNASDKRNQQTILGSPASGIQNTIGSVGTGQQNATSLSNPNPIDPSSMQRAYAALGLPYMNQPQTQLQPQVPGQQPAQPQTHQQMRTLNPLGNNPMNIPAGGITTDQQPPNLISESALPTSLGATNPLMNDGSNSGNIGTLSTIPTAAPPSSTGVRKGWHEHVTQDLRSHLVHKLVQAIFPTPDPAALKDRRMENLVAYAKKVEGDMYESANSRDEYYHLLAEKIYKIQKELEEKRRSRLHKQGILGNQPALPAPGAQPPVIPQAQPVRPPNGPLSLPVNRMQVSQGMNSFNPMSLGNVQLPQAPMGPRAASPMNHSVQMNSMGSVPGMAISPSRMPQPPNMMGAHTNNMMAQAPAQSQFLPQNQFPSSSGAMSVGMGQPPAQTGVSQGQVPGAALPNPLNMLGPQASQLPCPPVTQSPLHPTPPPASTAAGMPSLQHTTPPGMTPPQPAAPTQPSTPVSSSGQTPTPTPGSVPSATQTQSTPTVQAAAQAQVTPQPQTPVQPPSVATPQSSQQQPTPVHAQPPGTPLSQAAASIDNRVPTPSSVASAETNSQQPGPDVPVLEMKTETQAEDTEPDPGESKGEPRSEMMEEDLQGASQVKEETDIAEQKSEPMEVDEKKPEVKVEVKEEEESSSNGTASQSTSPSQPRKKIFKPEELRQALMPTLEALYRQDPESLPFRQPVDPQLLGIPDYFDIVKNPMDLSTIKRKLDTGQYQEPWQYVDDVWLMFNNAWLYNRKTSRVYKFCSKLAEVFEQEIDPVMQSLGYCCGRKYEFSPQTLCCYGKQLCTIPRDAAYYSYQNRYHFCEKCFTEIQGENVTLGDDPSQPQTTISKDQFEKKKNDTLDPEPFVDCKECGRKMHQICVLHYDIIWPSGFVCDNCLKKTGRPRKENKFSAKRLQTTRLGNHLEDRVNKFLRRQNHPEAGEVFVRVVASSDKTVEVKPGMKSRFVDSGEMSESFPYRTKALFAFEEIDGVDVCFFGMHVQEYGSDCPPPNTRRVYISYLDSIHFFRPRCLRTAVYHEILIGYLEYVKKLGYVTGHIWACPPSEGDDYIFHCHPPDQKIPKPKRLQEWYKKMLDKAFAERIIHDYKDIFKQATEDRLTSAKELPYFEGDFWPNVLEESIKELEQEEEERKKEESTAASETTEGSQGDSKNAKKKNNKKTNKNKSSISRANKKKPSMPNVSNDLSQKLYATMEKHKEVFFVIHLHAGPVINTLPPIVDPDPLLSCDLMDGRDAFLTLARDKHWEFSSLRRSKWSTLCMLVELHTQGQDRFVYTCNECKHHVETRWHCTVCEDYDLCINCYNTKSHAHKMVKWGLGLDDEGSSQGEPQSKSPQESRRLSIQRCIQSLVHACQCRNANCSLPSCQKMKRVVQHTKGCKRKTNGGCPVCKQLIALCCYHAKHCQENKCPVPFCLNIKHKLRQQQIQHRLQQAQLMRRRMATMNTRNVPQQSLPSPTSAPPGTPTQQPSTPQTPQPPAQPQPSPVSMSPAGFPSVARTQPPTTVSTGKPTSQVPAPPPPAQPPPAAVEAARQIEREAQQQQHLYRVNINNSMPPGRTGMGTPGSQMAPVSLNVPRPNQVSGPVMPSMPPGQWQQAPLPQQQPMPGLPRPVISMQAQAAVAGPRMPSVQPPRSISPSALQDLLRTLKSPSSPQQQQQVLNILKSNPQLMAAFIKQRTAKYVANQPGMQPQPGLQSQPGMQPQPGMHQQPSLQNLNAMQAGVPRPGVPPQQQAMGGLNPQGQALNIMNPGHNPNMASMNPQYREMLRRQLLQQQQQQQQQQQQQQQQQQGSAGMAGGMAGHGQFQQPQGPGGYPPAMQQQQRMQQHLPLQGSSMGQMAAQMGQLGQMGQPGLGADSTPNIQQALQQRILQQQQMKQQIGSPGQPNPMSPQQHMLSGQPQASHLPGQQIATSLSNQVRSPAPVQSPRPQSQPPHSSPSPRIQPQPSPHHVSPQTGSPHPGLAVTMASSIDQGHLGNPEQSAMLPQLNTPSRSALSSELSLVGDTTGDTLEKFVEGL

[10] = biological target: T10, TRIM24 (Homo sapiens, UniProt O15164); experiment: Epigenetics selectivity panel (BPS Bioscience); assay type: binding
T10 construct: purchased DiscoverX KINOMEscan (kinases); BPS Bioscience (epigenetic targets)

[11] = biological target: T11, JMJD1A (Homo sapiens, UniProt Q9Y4C1); experiment: Epigenetics selectivity panel (BPS Bioscience); assay type: biochemical
T11 construct: purchased DiscoverX KINOMEscan (kinases); BPS Bioscience (epigenetic targets)

[12] = biological target: T12, JMJD2B (Homo sapiens, UniProt O94953); experiment: Epigenetics selectivity panel (BPS Bioscience); assay type: biochemical
T12 construct: purchased DiscoverX KINOMEscan (kinases); BPS Bioscience (epigenetic targets)
T12 sequence (O94953 whole entry): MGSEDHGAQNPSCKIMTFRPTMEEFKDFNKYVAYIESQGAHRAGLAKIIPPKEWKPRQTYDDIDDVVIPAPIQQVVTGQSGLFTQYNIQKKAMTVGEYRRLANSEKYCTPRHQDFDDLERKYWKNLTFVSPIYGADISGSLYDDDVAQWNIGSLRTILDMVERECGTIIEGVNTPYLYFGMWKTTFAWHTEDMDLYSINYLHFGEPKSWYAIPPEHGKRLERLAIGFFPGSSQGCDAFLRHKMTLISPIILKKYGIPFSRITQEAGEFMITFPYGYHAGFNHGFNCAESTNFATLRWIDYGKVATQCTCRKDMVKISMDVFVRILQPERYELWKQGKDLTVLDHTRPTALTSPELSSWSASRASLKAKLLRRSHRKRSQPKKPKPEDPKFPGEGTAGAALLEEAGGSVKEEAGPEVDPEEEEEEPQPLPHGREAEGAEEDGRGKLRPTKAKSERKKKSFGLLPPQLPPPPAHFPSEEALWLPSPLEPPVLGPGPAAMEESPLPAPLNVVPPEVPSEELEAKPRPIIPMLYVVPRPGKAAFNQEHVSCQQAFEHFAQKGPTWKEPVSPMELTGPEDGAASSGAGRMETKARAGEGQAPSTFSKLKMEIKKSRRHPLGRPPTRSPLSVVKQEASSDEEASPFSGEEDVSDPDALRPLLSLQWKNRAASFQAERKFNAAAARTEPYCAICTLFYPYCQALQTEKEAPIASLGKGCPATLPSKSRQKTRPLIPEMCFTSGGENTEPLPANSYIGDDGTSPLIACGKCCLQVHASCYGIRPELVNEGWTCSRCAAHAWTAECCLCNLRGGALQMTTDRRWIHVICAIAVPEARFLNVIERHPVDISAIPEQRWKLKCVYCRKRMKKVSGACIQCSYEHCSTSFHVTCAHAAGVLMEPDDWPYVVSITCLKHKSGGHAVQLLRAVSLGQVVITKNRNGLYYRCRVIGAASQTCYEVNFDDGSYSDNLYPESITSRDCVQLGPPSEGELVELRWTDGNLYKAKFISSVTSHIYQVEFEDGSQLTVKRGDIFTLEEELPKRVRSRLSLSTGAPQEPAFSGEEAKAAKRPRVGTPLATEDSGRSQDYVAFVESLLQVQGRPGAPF

[13] = biological target: T13, JMJD2E (Homo sapiens, UniProt B2RXH2); experiment: Epigenetics selectivity panel (BPS Bioscience); assay type: biochemical
T13 construct: purchased DiscoverX KINOMEscan (kinases); BPS Bioscience (epigenetic targets)
T13 sequence (B2RXH2 whole entry): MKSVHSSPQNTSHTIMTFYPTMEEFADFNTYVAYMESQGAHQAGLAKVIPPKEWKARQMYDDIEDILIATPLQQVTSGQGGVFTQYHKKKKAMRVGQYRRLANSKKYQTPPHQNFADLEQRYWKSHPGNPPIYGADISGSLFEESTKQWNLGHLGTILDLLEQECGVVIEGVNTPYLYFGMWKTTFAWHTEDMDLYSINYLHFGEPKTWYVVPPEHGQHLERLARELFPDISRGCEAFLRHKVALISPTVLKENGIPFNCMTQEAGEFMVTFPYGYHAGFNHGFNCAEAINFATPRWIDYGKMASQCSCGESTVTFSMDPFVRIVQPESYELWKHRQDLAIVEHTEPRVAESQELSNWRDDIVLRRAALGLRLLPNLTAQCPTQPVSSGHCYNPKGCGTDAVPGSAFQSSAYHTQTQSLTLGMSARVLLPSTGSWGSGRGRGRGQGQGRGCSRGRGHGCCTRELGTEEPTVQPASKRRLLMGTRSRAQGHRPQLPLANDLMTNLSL

[14] = biological target: T14, Jarid1B (Homo sapiens, UniProt Q9UGL1); experiment: Epigenetics selectivity panel (BPS Bioscience); assay type: biochemical
T14 construct: purchased DiscoverX KINOMEscan (kinases); BPS Bioscience (epigenetic targets)

[15] = biological target: T15, Jarid1C (Homo sapiens, UniProt P41229); experiment: Epigenetics selectivity panel (BPS Bioscience); assay type: biochemical
T15 construct: purchased DiscoverX KINOMEscan (kinases); BPS Bioscience (epigenetic targets)

[16] = biological target: T16, Human HDAC1 (Homo sapiens, UniProt Q13547); experiment: HDAC1 enzyme activity assay; assay type: biochemical
T16 construct: purchased DiscoverX KINOMEscan (kinases); BPS Bioscience (epigenetic targets)

[17] = Plasma protein binding (equilibrium dialysis); assay type: in vitro ADME; conditions: pH 7.4
Description: This study was conducted by Equilibrium Dialysis at Wuxi (http://www.wuxi.com/). HT-Dialysis plate (Model HTD 96 b, Cat# 1006) and the dialysis membrane (molecular weight cut off 12-14 kDa, Cat# 1101) were purchased from HT Dialysis LLC (Gales Ferry, CT). Human plasma and CD-1 mouse plasma from Bioreclamation were thawed prior to experiment and the pH was adjusted at 7.4. Concentrations of test compounds in starting solution (before dialysis), plasma side of the membrane and buffer side of the membrane were quantified by LC-MS/MS (Shimadzu LC 20-AD - API 4000) methodologies, using peak area ratio of analyte/internal standard. The fraction of unbound, bound and recovery were calculated.
Results are the average of three replicates. […]
(§1) The pH was adjusted to 7.40±0.05 using either 1 M sodium hydroxide or 1 M hydrochloric acid. Test compounds were diluted to 0.2 mM in DMSO and further diluted prior to testing to 10 µM in PBS, pH 7.4 (final 5% DMSO). The assay was performed using a 96-well multiscreen-IP PAMPA plate (Millipore, Cat. # MAIPN4510), whose PVDF membrane was pre-coated with 5 µL of 1% lecithin/dodecane mixture. 150 µL of PBS solution containing the test compounds were added to the donor chamber. Blank PBS (300 µL) was also added to the PTFE acceptor plate, and the donor and acceptor plates were assembled and incubated for 4 h at room temperature with shaking at 150 rpm. […]

[18] = Kinetic solubility; assay type: physicochemical; conditions: aqueous buffer, kinetic from dmso stock, pH 7.4, 50 mM phosphate buffer
Description: This study was conducted at Wuxi (http://www.wuxi.com/) at pH 7.4 (50 mM phosphate buffer). […]
as §1

[19] = PAMPA permeability; assay type: in vitro ADME; conditions: pH 7.4
[20] = system: PEER; experiment: Cell proliferation assay (MTS); assay type: cell-based; conditions: Homo sapiens; ALL, 48 h
[21] = system: MY; experiment: Cell proliferation assay (MTS); assay type: cell-based; conditions: Homo sapiens; ALL, 48 h
[22] = system: KG-1; experiment: Cell proliferation assay (MTS); assay type: cell-based; conditions: Homo sapiens, AML, 48 h
[23] = system: MV4-11; experiment: Cell proliferation assay (MTS); assay type: cell-based; conditions: Homo sapiens, MV4-11; AML, 48 h; read-out: GI50
[24] = system: JJN3; experiment: Cell proliferation assay (MTS); assay type: cell-based; conditions: Homo sapiens, JJN-3; MM
[25] = system: MM1.S; experiment: Cell proliferation assay (MTS); assay type: cell-based; conditions: Homo sapiens
[26] = system: MGH-U4; experiment: Cell proliferation assay (MTS); assay type: cell-based; conditions: Homo sapiens; Bladder
[27] = system: RT112; experiment: Cell proliferation assay (MTS); assay type: cell-based; conditions: Homo sapiens, RT-112; Bladder
[28] = system: HELA; experiment: Cell proliferation assay (MTS); assay type: cell-based; conditions: Homo sapiens, Cervical
[29] = system: LOVO; experiment: Cell proliferation assay (MTS); assay type: cell-based; conditions: Homo sapiens, Colorectal
[30] = system: 451-LU; experiment: Cell proliferation assay (MTS); assay type: cell-based; conditions: Homo sapiens, Melanoma
[31] = system: SK-MEL-19; experiment: Cell proliferation assay (MTS); assay type: cell-based; conditions: Homo sapiens, SK-MEL19; Melanoma
[32] = system: SK-MEL-28; experiment: Cell proliferation assay (MTS); assay type: cell-based; conditions: Homo sapiens, Melanoma
[33] = system: SU8686; experiment: Cell proliferation assay (MTS); assay type: cell-based; conditions: Homo sapiens, SU.86.86; Pancreas
[34] = system: PC3; experiment: Cell proliferation assay (MTS); assay type: cell-based; conditions: Homo sapiens, PC-3; Prostate
[35] = system: H1299; experiment: Cell proliferation assay (MTS); assay type: cell-based; conditions: Homo sapiens, NCI-H1299; NSCLC
[36] = system: HCC95; experiment: Cell proliferation assay (MTS); assay type: cell-based; conditions: Homo sapiens, SCLC

Compound	inhibition at 10 µM [1]	inhibition at 10 µM [2]	inhibition at 10 µM [3]	inhibition at 10 µM [4]	inhibition at 10 µM [5]	inhibition at 10 µM [6]	inhibition at 10 µM [7]	inhibition at 10 µM [8]	inhibition at 10 µM [9]	inhibition at 10 µM [10]	inhibition at 10 µM [11]	inhibition at 10 µM [12]	inhibition at 10 µM [13]	inhibition at 10 µM [14]	inhibition at 10 µM [15]	inhibition at 10 µM [16]	fraction unbound ([17]; CD-1, mouse)	fraction unbound ([17]; human)	solubility [18]	PAMPA (Pe) [19]	also measured
COc1cc2c(NC3CCN(C)CC3)cc(-c3ccc(C)o3)nc2cc1OCCCN1CCCC1 [CM-272, 6-methoxy-2-(5-methyl-2-furyl)-N-(1-methyl-4-piperidyl)-7-(3-pyrrolidin-1-ylpropoxy)quinolin-4-amine]	4%	6%	11%	8%	0%	0%	56%	8%	5%	0%	8%	2%	1%	5%	1%	0%	0.25	0.244	118 µg/mL (≈ 246 µM)	0.16 10-6 in nm/s	IC50 ([7]; BPS): 1500 nM; GI50 [20]: 930 nM; GI50 [21]: 816 nM; GI50 [22]: 3540 nM; GI50 [23]: 269 nM; GI50 [24]: 1320 nM; GI50 [25]: 1080 nM; GI50 [26]: 725 nM; GI50 [27]: 899 nM; GI50 [28]: 689 nM; GI50 [29]: 1220 nM; GI50 [30]: 378 nM; GI50 [31]: 1040 nM; GI50 [32]: 874 nM; GI50 [33]: 1400 nM; GI50 [34]: 590 nM; GI50 [35]: 1060 nM; GI50 [36]: 751 nM
COc1cc2c(NCC3CCN(C)CC3)cc(-c3ccc(C)o3)nc2cc1OCCCN1CCCC1 [CM-579, 6-methoxy-2-(5-methyl-2-furyl)-N-[(1-methyl-4-piperidyl)methyl]-7-(3-pyrrolidin-1-ylpropoxy)quinolin-4-amine]	2%	0%	12%	0%	0%	0%	0%	0%	0%	0%	6%	40%	8%	27%	13%	0%	0.046	0.147	> 144 µg/mL	0.01 10-6 in nm/s	GI50 [20]: > 10000 nM; GI50 [21]: 3950 nM; GI50 [22]: > 10000 nM; GI50 [23]: 385 nM; GI50 [24]: 4350 nM; GI50 [25]: 3790 nM; GI50 [26]: 173 nM; GI50 [27]: 319 nM; GI50 [28]: 109 nM; GI50 [29]: 297 nM; GI50 [30]: 69 nM; GI50 [31]: 161 nM; GI50 [32]: 1390 nM; GI50 [33]: 621 nM; GI50 [34]: 307 nM; GI50 [35]: 547 nM; GI50 [36]: 613 nM
